Experiments:
[1] = tested on: L5 and L6 spinal nerve ligated rats, mechanical allodynia; assay: Antiallodynic activity, electronic Von Frey probes, L5 and L6 spinal nerve ligation; type: in vivo, Rj: Wistar (Han) rats
Experimental: Pathogen-free, male Rj: Wistar (Han) rats (300-380 g) were purchased from Elevage Janvier, 53940 Le Genest-Saint-Isle, France. The animals were maintained on a 12-h light/dark cycle (lights on from 7:00-19:00) in a controlled ambient temperature of 21±1° C., and relative humidity maintained at 40-70%. The animals had free access to food (UAR 113) and tap water until tested.
Rats were anesthetized (sodium pentobarbital 40 mg/kg i.p.). A ligature was tied tightly around the left L5 and L6 spinal nerves. The rats received an i.m. injection of 50 000 IU Penicillin (Diamant®) and were allowed to recover. This procedure results in mechanical allodynia in the left hind paw. Two weeks after the surgery, when the allodynic state was fully developed, rats were submitted consecutively to tactile stimulation of both the non-lesioned and the lesioned hindpaws.
The animals were placed on an elevated grid floor in Plexiglass boxes (19×11.5×13 cm). The tip of an electronic Von Frey probe (Bioseb, Model 1610) was then applied with increasing pressure to the lesioned and non-lesioned hindpaws and the force required to induce paw-withdrawal was automatically recorded. Prior to receiving drug treatment all animals were submitted to tactile stimulation and assigned to treatment groups matched on the basis of their pain response. This procedure was carried out 3 times for each paw and the mean paw force was calculated to provide basic scores per animal. Data were expressed as percent change (means ±SEM) of effectiveness from the controls. Statistical analysis was done using non-paired and paired Student's t tests.
As summarized in Table 2 below, an enantiomer of Formula (Ib) substantially free of other enantiomers was evaluated at the doses 10, 30 and 100 mg/kg (n=8), administered p.o. in a volume of 5 mL/kg. Morphine (128 mg/kg) was used as reference substance. Control animals received a p.o. administration of vehicle. The test was performed blind 30, 60 and 90 minutes after drug administration.

[2] = tested on: Chung model of neuropathic pain (L5 spinal nerve ligated rats, mechanical allodynia); assay: Antiallodynic activity in the Chung model, manually applied von Frey probes; type: in vivo, Sprague-Dawley rats
Text: The procedure used to test the antiallodynic activity of an enantiomer of Formula (I) substantially free of other enantiomers was the procedure for the measurement of allodynia found in the Chung Model (Kim S. H. and Chung J. M., An Experimental Model for Peripheral Neuropathy Produced by Segmental Spinal Nerve Ligation in the Rat, Pain, 1992, 50, 355-363).
Pathogen-free, male albino Sprague-Dawley rats, 200 g, were purchased from Harlan Industries (Indianapolis, Ind.) and maintained on a 12-h light/dark cycle (lights on at 06:00 h) in a climate-controlled room with food and water available ad libitum up to the time of the testing and food withdrawn 18 hr prior to testing.
The rats were anesthetized with isoflurane inhalant anesthesia. The left lumbar spinal nerve at the level of L5 was tightly ligated (4-0 silk suture) distal to the dorsal root ganglion and prior to entrance into the sciatic nerve, as described by Kim and Chung. The incisions were closed and the rats were allowed to recover under conditions described above. This procedure results in mechanical allodynia in the left hind paw. The sham operation, when performed, consisted of a similar surgical procedure lacking only the final ligation of the spinal nerve. Mechanical (tactile) allodynia was assessed by recording the pressure at which the affected paw (ipsilateral to the site of nerve injury) was withdrawn from graded stimuli (von Frey filaments ranging from 4.0 to 148.1 mN) applied by hand perpendicularly to the plantar surface of the paw (between the footpads) through wire-mesh observation cages. A paw withdrawal threshold (PWT) was determined by sequentially increasing and decreasing the stimulus strength and analyzing withdrawal data using a Dixon non-parametric test, as described by Chaplan et al (Chaplan S. R., Bach F. W., Pogrel J. W., Chung J. M. and Yaksh T. L., Quantitative Assessment of Tactile Allodynia in the Rat Paw, J Neurosci Meth, 1994, 53, 55-63). Normal rats, sham operated rats, and the contralateral paw of L5 ligated rats withstand at least 148.1 mN (equivalent to 15 g) of pressure without responding. Spinal nerve ligated rats respond to as little as 4.0 mN (equivalent to 0.41 g) of pressure on the affected paw. […] The PWT was used to calculate the % maximal possible effect (% MPE) according to the formula:
% MPE=100×(PWT−CT)/(CO−CT).
As summarized in Table 1 below, the enantiomer of Formula (Ib) substantially free of other enantiomers was screened for antiallodynic activity in the Chung model of neuropathic pain at a dose of 30 mg/kg, po, with responses being measured at 0.5, 1, 2 and 4 hr post dosing.

Row | SMILES | % Change (paw-withdrawal force from controls) ([1]; 10 mg/kg p.o., ligatured paw, 60 minute measurement, n=8, p ns) [%] | % Change (paw-withdrawal force from controls) ([1]; 30 mg/kg p.o., ligatured paw, 60 minute measurement, n=8, p <0.05) [%] | % Change (paw-withdrawal force from controls) ([1]; 100 mg/kg p.o., ligatured paw, 60 minute measurement, n=8, p <0.05) [%] | effect on the non-ligatured paw ([1]; 10, 30 and 100 mg/kg p.o., 60 minute measurement) | anti-allodynic effect at 90 min post-dosing ([1]; p.o., 90 min post-dosing) | % Maximum Possible Effect ([2]; 30 mg/kg, po, paw withdrawal threshold, activity seen at 30 min post-dosing, n=5) [%] | time course of antiallodynic activity ([2]; 30 mg/kg, po, responses measured at 0.5, 1, 2 and 4 hr post dosing) | dose dependence of antiallodynic responses ([2]; about 5 mg/kg, p.o. to about 45 mg/kg, p.o., 30 min) | time of peak antiallodynic effect ([2]; after oral dosing) [min] | maximum % MPE ([2]; highest dose tested (about 45 mg/kg, p.o.), 30 min after oral dosing, N=5) [%] | % Change (paw-withdrawal force from controls) ([1]; 128 mg/Kg morphine, positive control) [%]
1 | NC(=O)OC[C@@H](O)c1ccccc1Cl [enantiomer of Formula (Ib)] | 65 | 80 | 72 | without affecting the non-ligatured paw | no longer present by 90 min post-dosing | 51 | exhibited antiallodynic activity at 30 min. post-dosing, and responses returned to baseline by one hour | dose-dependent | 30 | 60 | –
2 | CN1CC[C@]23c4c5ccc(O)c4O[C@H]2[C@@H](O)C=C[C@H]3[C@H]1C5 [morphine, Morphine, reference compound] | – | – | – | – | – | – | – | – | – | – | 38

Reference: patent US20020107283A1, “Carbamate compounds for use in preventing or treating neuropathic pain and cluster and migraine headache-associated pain” (priority 2000, published 2002)
